“And” between values parts separate entries of the source, which are not always exact repeats. Identical values can stand only once.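 Interpolation was linear, between the two tested concentrations surrounding the appropriate level; five concentrations were tested over 48 hours in 96-well plates. At the GI50, growth is halved. Definition used: TGI = concentration required for complete inhibition of growth.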
Columns and labels:
Experiment in all cases: NCI tumour cell line growth inhibition, 48 h
[1] = test system: SNB-75 CNS
[2] = test system: HCT-15 colon
[3] = test system: NCI-H23 lung
[4] = test system: T-47D breast
[5] = test system: UACC-257 melanoma
[6] = test system: SN12C renal
[7] = test system: CAKI-1 renal
[8] = test system: SK-MEL-5 melanoma
[9] = test system: UACC-62 melanoma
[10] = test system: SNB-19 CNS
[11] = test system: MCF7 breast
[12] = test system: MDA-N
[13] = test system: SF-295 CNS

Row | SMILES | TGI [1] | TGI [2] [µM] | TGI [3] [µM] | TGI [4] | TGI [5] | TGI [6] | TGI [7] | TGI [8] | TGI [9] | TGI [10] | TGI [11] | TGI [12] | TGI [13] | GI50 [1] | GI50 [5] | GI50 [8] | GI50 [9] | GI50 [10]
1 | C=C(C(=O)OC)[C@@H]1C[C@@H](OC(C)=O)C2=C[C@H](C[C@@]3(C)O[C@@H]3C3=CC(C)=C(O3)[C@H]1OC(C)=O)OC2=O | > 100 µM | > 100 | 35.5 | 33.8 µM | 44.3 µM | 56.8 µM | 21.2 µM | 29.7 µM | 40.9 µM | > 100 µM | 35.3 µM | 50.8 µM | 88.5 µM |  |  |  |  | 
2 | COc1ccccc1/C=C/C1=NN(c2cccc(S(=O)(=O)O)c2)C2(C1)C(Cl)C(=O)N2c1nc2ccccc2s1 (stereo not drawn) | > 96.3 µM | > 100 | > 100 | 44 µM | > 100 µM | > 100 µM | > 74.3 µM | > 100 µM | > 100 µM | > 100 µM | > 100 µM | > 100 µM | > 100 µM |  |  |  |  | 
3 | COC(=O)/C=C1/OC(c2ccccc2)=C(C)C1=O | 43 µM | 17 | 43.6 | 42.7 µM |  |  | 14.8 µM | 34.2 µM | 11.5 µM | 30.5 µM | 16.6 µM | 5.71 µM | 26.1 µM |  |  |  |  | 
4 | COc1ccc(COC(=O)NCC(=O)NC(C)C(=O)NC(Cc2ccccc2)C(=O)OCc2ccccc2)cc1 (stereo not drawn) | 60.9 µM and 89.2 µM | > 100 | > 100 | 48.6 µM and 86.2 µM | 29.8 µM and > 100 µM | > 100 µM and 51.9 µM | 41.5 µM and 65.7 µM | 26.8 µM and > 100 µM | 40.2 µM and > 100 µM | 41.1 µM and > 100 µM | 30.7 µM and 34.9 µM | > 100 µM and 62.8 µM | 47.8 µM and 39.1 µM | 21.1 µM and 44.6 µM | 15.7 µM and > 100 µM | 13.8 µM and 56.3 µM | 18.8 µM and > 100 µM | 21.5 µM and > 100 µM
5 | CC(C)(Cl)C(Br)CCC(Br)(CCl)C(Cl)CBr (stereo not drawn) | > 10 µM | > 10 | > 10 | > 10 µM | > 10 µM | > 10 µM | > 10 µM | > 10 µM |  | > 10 µM | > 10 µM | > 10 µM | > 10 µM |  |  |  |  | 
6 | Cc1ccc2nc(C(C)C)c(=O)[nH]c2c1 | > 100 µM | > 100 | > 100 | > 100 µM | > 100 µM | > 100 µM | > 100 µM | > 100 µM | > 100 µM | > 100 µM | > 100 µM | > 100 µM | > 100 µM |  |  |  |  | 
7 | O=[N+]([O-])c1ccc(-n2nc3ccc4c(no[n+]4[O-])c3n2)cc1 | > 100 µM | > 100 | > 100 | > 100 µM | > 100 µM | > 100 µM | > 100 µM | > 100 µM | > 100 µM | > 100 µM | > 100 µM | > 100 µM | > 100 µM |  |  |  |  | 
8 | CN(C)c1c(C2OC(CO)C(O)C2O)c(=O)c1=O (stereo not drawn) | > 100 µM | > 100 | > 100 | > 100 µM | > 100 µM | > 100 µM | > 100 µM |  | > 100 µM | > 100 µM | > 100 µM | > 100 µM | > 55.4 µM |  |  |  |  | 
9 | Nc1nc(NCCCO)cc(=O)[nH]1 | > 100 µM | > 100 | > 100 | > 100 µM | > 100 µM | > 100 µM | > 100 µM | > 100 µM | > 100 µM | > 100 µM | > 100 µM | > 100 µM | > 100 µM |  |  |  |  | 
10 | O=C1/C(=C/c2ccccc2[N+](=O)[O-])N=C(c2ccccc2)N1c1nc2ccccc2s1 | 64.6 µM | 56.8 | 41.4 | 76.6 µM | > 100 µM | 64.3 µM | > 100 µM | > 100 µM |  | > 100 µM | 90.4 µM | 71.9 µM | > 100 µM |  |  |  |  | 
11 | CC(C)C(OC(=O)c1ccc(NCC2=CC(=O)C=CC2=O)cc1)C(C)C | 17.2 µM | 10.4 | 20.2 | 7.45 µM | 25.9 µM | 35.8 µM | 3.02 µM | 24.5 µM | 20.3 µM | 53.5 µM | 22.5 µM | 21.5 µM | 29.4 µM |  |  |  |  | 
12 | CC(=O)c1ccc2c(c1)CC1(C2)Cc2cc3c(c(C(=O)O)c2C1)CCC3 (stereo not drawn) | > 100 µM | > 100 | > 100 | > 100 µM | > 100 µM | > 100 µM | > 100 µM | > 100 µM | > 100 µM |  | > 100 µM | > 100 µM | > 100 µM |  |  |  |  | 
13 | CCC(C)[C@@H](Nc1c(O)c2c(c(O)c1Cl)C(=O)C=CC2=O)C(=O)OC (stereo partly drawn) | > 10 µM | > 10 | 5.7 | > 10 µM | 6.59 µM | > 10 µM | > 10 µM | 4.51 µM | > 10 µM | > 10 µM | > 10 µM | > 10 µM | > 10 µM |  |  |  |  | 
